# Test results published in patent publication US6939946B2, “Ring modified cyclic peptide analogs” (Eli Lilly and Company, priority 1998, dated 2005).
# Where two headings read alike, the source gives them in different places. Numbered stars: 1 amine (or outer) side, 2 acyl side, 3 side chain; on linkers, the order of the positions; unused ones are H or OH. Bridge positions count the residues as written; N and C are the ends. Square brackets hold non-standard residues; d marks the D form. Peptide text beside a SMILES is read from it. * marks the point of attachment. ξ: configuration not given here. pTerphenylCO(4''-OnC5H11) = CCCCCOc1ccc(-c2ccc(-c3ccc(C(=O)*)cc3)cc2)cc1; Pro(3S-OH,4S-Me) = C[C@H]1CN[C@H](C(=O)O)[C@H]1O; hTyr(3R-OH) = N[C@H](C(=O)O)[C@H](O)Cc1ccc(O)cc1; X1 = CN1CCC(NC[C@H](N[*:1])C(=O)[*:2])CC1; Hyp = O=C(O)[C@@H]1C[C@@H](O)CN1; Thr(3ξ) = CC(O)[C@H](N)C(=O)O; Orn = NCCC[C@H](N)C(=O)O; dDap = NC[C@@H](N)C(=O)O; Dap = NC[C@H](N)C(=O)O
# Key:
# C. albicans = conditions: in vitro
# C. parapsilosis = conditions: in vitro
# A. fumigatus = conditions: in vitro
# Histoplasma capsulatum = conditions: in vitro
# Cryptococcus neoformans = conditions: in vitro
# [1] = the molecule shown is the open-chain precursor, amide bond, H2/Pd-C (EtOH/AcOH), then Et3N, Et2O, 2 steps
Molecule,Minimal Inhibitory Concentration MIC C. albicans (C. albicans),Minimal Inhibitory Concentration MIC C. parapsilosis (C. parapsilosis),Minimal Inhibitory Concentration MIC A. fumigatus (A. fumigatus),Minimal Inhibitory Concentration MIC Histoplasma capsulatum (Histoplasma capsulatum),Minimal Inhibitory Concentration MIC Cryptococcus neoformans (Cryptococcus neoformans),"ring closure, isolated yield ([1]; 21-membered ring, 2.1 mM)","ring closure, isolated yield ([1]; 22-membered ring, 1.1 mM)"
"CCCCCOc1ccc(-c2ccc(-c3ccc(C(=O)N[C@@H]4CNC(=O)CNC(=O)[C@@H]5[C@@H](O)[C@@H](C)CN5C(=O)[C@H](C(C)O)NC(=O)[C@H]([C@H](O)Cc5ccc(O)cc5)NC(=O)[C@@H]5C[C@@H](O)CN5C(=O)[C@H](C(C)O)NC4=O)cc3)cc2)cc1 (stereo partly drawn) [E7-6(a)] ({pTerphenylCO(4''-OnC5H11)}-[dDap][Thr(3ξ)][Hyp][hTyr(3R-OH)][Thr(3ξ)][Pro(3S-OH,4S-Me)]G; lactam 1-C)",>20 µg/mL,>20 µg/mL,>20 µg/mL,>20 µg/mL,>20 µg/mL,,
"Boc-Orn-Val-Hyp(TBS)-hTyr(3-OTBS,4'-OTBS)-Thr(TBS)-Pro(3-OTBS,4-Me)-N(Boc)2?",,,,,,43%,
"Boc-Cys(SO2; S-CH2CH2NH2)-Thr(TBS)-Hyp(TBS)-hTyr(3-OTBS,4'-OTBS)-Thr(TBS)-Pro(3-OTBS,4-Me)-N(Boc)2?",,,,,,,67%
"CCCCCOc1ccc(-c2ccc(-c3ccc(C(=O)NC[C@@H]4NC(=O)CNC(=O)[C@@H]5[C@@H](O)[C@@H](C)CN5C(=O)[C@H](C(C)O)NC(=O)[C@H]([C@H](O)Cc5ccc(O)cc5)NC(=O)[C@@H]5C[C@@H](O)CN5C(=O)[C@H](C(C)O)NC4=O)cc3)cc2)cc1 (stereo partly drawn) [E7-14(b)] (cyclo([Dap](pTerphenylCO(4''-OnC5H11))[Thr(3ξ)][Hyp][hTyr(3R-OH)][Thr(3ξ)][Pro(3S-OH,4S-Me)]G))",0.156 µg/mL,>20 µg/mL,>20 µg/mL,0.078 µg/mL,>20 µg/mL,,
"CCCCCOc1ccc(-c2ccc(-c3ccc(C(=O)NC[C@H]4NC(=O)CNC(=O)[C@@H]5[C@@H](O)[C@@H](C)CN5C(=O)[C@H](C(C)O)NC(=O)[C@H]([C@H](O)Cc5ccc(O)cc5)NC(=O)[C@@H]5C[C@@H](O)CN5C(=O)[C@H](C(C)O)NC4=O)cc3)cc2)cc1 (stereo partly drawn) [E7-14(a)] (cyclo(G[dDap](pTerphenylCO(4''-OnC5H11))[Thr(3ξ)][Hyp][hTyr(3R-OH)][Thr(3ξ)][Pro(3S-OH,4S-Me)]))",0.312 µg/mL,>20 µg/mL,>20 µg/mL,0.312 µg/mL,>20 µg/mL,,
"CCCCCOc1ccc(-c2ccc(-c3ccc(C(=O)N[C@H]4CNC(=O)CNC(=O)[C@@H]5[C@@H](O)[C@@H](C)CN5C(=O)[C@H](C(C)O)NC(=O)[C@H]([C@H](O)Cc5ccc(O)cc5)NC(=O)[C@@H]5C[C@@H](O)CN5C(=O)[C@H](C(C)O)NC4=O)cc3)cc2)cc1 (stereo partly drawn) [E7-6(b)] ({pTerphenylCO(4''-OnC5H11)}-[Dap][Thr(3ξ)][Hyp][hTyr(3R-OH)][Thr(3ξ)][Pro(3S-OH,4S-Me)]G; lactam 1-C)",0.312 µg/mL,>20 µg/mL,5.0 µg/mL,1.25 µg/mL,>20 µg/mL,,
"C[C@@H]1[C@H](O)[C@@H](C)/C=C/C=C/C=C/C=C/C=C/C=C/C=C/[C@H](O[C@@H]2O[C@H](C)[C@@H](O)[C@H](N)[C@@H]2O)C[C@@H]2O[C@](O)(C[C@@H](O)C[C@@H](O)[C@H](O)CC[C@@H](O)C[C@@H](O)CC(=O)O[C@H]1C)C[C@H](O)[C@H]2C(=O)O [Ampho B, Amphotericin B, reference compound]",0.078 µg/mL,0.038 µg/mL,0.312 µg/mL,0.039 µg/mL,0.039 µg/mL,,
"CCCCCOc1ccc(-c2ccc(-c3ccc(C(=O)N[C@H]4CNC(=O)[C@H](CN)NC(=O)[C@@H]5[C@@H](O)[C@@H](C)CN5C(=O)[C@H](C(C)O)NC(=O)[C@H]([C@H](O)Cc5ccc(O)cc5)NC(=O)[C@@H]5C[C@@H](O)CN5C(=O)[C@H](C(C)O)NC4=O)cc3)cc2)cc1 (stereo partly drawn) [Compound E8-8] ({pTerphenylCO(4''-OnC5H11)}-[Dap][Thr(3ξ)][Hyp][hTyr(3R-OH)][Thr(3ξ)][Pro(3S-OH,4S-Me)][Dap]; lactam 1-C)",0.078 µg/mL,0.625 µg/mL,5.0 µg/mL,0.312 µg/mL,>20 µg/mL,,
CCCCCOc1ccc(-c2ccc(-c3ccc(C(=O)NC4CS(=O)(=O)CCNC(=O)[C@@H]5[C@H](O)[C@@H](C)CN5C(=O)[C@H]([C@@H](C)O)NC(=O)[C@H]([C@H](O)Cc5ccc(O)cc5)NC(=O)[C@@H]5C[C@@H](O)CN5C(=O)[C@H]([C@@H](C)O)NC4=O)cc3)cc2)cc1 (stereo partly shown) [Compound E3-6],10 µg/mL,>20 µg/mL,20 µg/mL,10 µg/mL,,,
CCCCCOc1ccc(-c2ccc(-c3ccc(C(=O)N[C@H]4CCNNC(=O)[C@@H]5[C@@H](O)[C@@H](C)CN5C(=O)[C@H](C(C)O)NC(=O)[C@H]([C@H](O)Cc5ccc(O)cc5)NC(=O)[C@@H]5C[C@@H](O)CN5C(=O)[C@H](C(C)O)NC4=O)cc3)cc2)cc1 (stereo partly shown) [E2-10(b)],0.01 µg/mL,0.156 µg/mL,0.156 µg/mL,0.156 µg/mL,,,
CCCCCOc1ccc(-c2ccc(-c3ccc(C(=O)N[C@H]4CCN(C(=O)CN)NC(=O)[C@@H]5[C@@H](O)[C@@H](C)CN5C(=O)[C@H](C(C)O)NC(=O)[C@H]([C@H](O)Cc5ccc(O)cc5)NC(=O)[C@@H]5C[C@@H](O)CN5C(=O)[C@H](C(C)O)NC4=O)cc3)cc2)cc1 (stereo partly shown) [Compound E2-12],0.01 µg/mL,0.312 µg/mL,0.156 µg/mL,0.039 µg/mL,,,
CCCCCOc1ccc(-c2ccc(-c3ccc(C(=O)N[C@H]4CCN(CCC)NC(=O)[C@@H]5[C@@H](O)[C@@H](C)CN5C(=O)[C@H](C(C)O)NC(=O)[C@H]([C@H](O)Cc5ccc(O)cc5)NC(=O)[C@@H]5C[C@@H](O)CN5C(=O)[C@H](C(C)O)NC4=O)cc3)cc2)cc1 (stereo partly shown) [E2-11(c)],0.312 µg/mL,1.25 µg/mL,0.156 µg/mL,0.312 µg/mL,,,
"CCCCCOc1ccc(-c2ccc(-c3ccc(C(=O)N[C@H]4CNC(=O)[C@H](CNC5CCN(C)CC5)NC(=O)[C@@H]5[C@@H](O)[C@@H](C)CN5C(=O)[C@H](C(C)O)NC(=O)[C@H]([C@H](O)Cc5ccc(O)cc5)NC(=O)[C@@H]5C[C@@H](O)CN5C(=O)[C@H](C(C)O)NC4=O)cc3)cc2)cc1 (stereo partly drawn) [Compound E8-9] ({pTerphenylCO(4''-OnC5H11)}-[Dap][Thr(3ξ)][Hyp][hTyr(3R-OH)][Thr(3ξ)][Pro(3S-OH,4S-Me)][X1]; lactam 1-C)",0.156 µg/mL,5.0 µg/mL,5.0 µg/mL,0.625 µg/mL,>20 µg/mL,,
"CCCCCOc1ccc(-c2ccc(-c3ccc(C(=O)N[C@H]4CCCNC(=O)[C@@H]5[C@@H](O)[C@@H](C)CN5C(=O)[C@H](C(C)O)NC(=O)[C@H]([C@H](O)Cc5ccc(O)cc5)NC(=O)[C@@H]5C[C@@H](O)CN5C(=O)[C@H](C(C)O)NC4=O)cc3)cc2)cc1 (stereo partly drawn) [Compound E1-3] ({pTerphenylCO(4''-OnC5H11)}-[Orn][Thr(3ξ)][Hyp][hTyr(3R-OH)][Thr(3ξ)][Pro(3S-OH,4S-Me)]; lactam 1-C)",0.005 µg/mL,0.156 µg/mL,0.078 µg/mL,0.156 µg/mL,,,
CCCCCOc1ccc(-c2ccc(-c3ccc(C(=O)N[C@H]4CNC(=N)NC(=O)[C@@H]5[C@@H](O)[C@@H](C)CN5C(=O)[C@H](C(C)O)NC(=O)[C@H]([C@H](O)Cc5ccc(O)cc5)NC(=O)[C@@H]5C[C@@H](O)CN5C(=O)[C@H](C(C)O)NC4=O)cc3)cc2)cc1 (stereo partly shown) [Compound E6-6],0.078 µg/mL,>20 µg/mL,>20 µg/mL,>20 µg/mL,,,
